According to PubChem BioAssay (NCI):
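Results reflect a 48-hour exposure of cells in 96-well plates to compound at five concentrations. TGI is the concentration that stops growth completely.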

Key:
Assay in all cases: NCI tumour cell line growth inhibition, 48 h
IGROV1 ovarian = tested on: IGROV1 ovarian
HCT-116 colon = tested on: HCT-116 colon
SR leukemia = tested on: SR leukemia
HS 578T breast = tested on: HS 578T breast
SK-MEL-28 melanoma = tested on: SK-MEL-28 melanoma
COLO 205 colon = tested on: COLO 205 colon
KM12 colon = tested on: KM12 colon
T-47D breast = tested on: T-47D breast
MCF7 breast = tested on: MCF7 breast
SN12C renal = tested on: SN12C renal
UO-31 renal = tested on: UO-31 renal
A498 renal = tested on: A498 renal
MDA-MB-435 = tested on: MDA-MB-435
786-0 renal = tested on: 786-0 renal
PC-3 prostate = tested on: PC-3 prostate
MDA-N = tested on: MDA-N
M14 melanoma = tested on: M14 melanoma
NCI-H522 lung = tested on: NCI-H522 lung
OVCAR-8 ovarian = tested on: OVCAR-8 ovarian
HCC-2998 colon = tested on: HCC-2998 colon

## NNC(=O)CSc1nc2ccc(I)cc2c(=O)n1Cc1ccccc1
IGROV1 ovarian
  TGI: 69.3 µM
HCT-116 colon
  TGI: 43.2 µM
SR leukemia
  TGI: 61.2 µM
HS 578T breast
  TGI: 52.5 µM
SK-MEL-28 melanoma
  TGI: 80.5 µM
COLO 205 colon
  TGI: 53.2 µM
KM12 colon
  TGI: 58.7 µM
T-47D breast
  TGI: > 100 µM
MCF7 breast
  TGI: 59.4 µM
SN12C renal
  TGI: 48.6 µM
UO-31 renal
  TGI: 35.4 µM
A498 renal
  TGI: 33.2 µM
MDA-MB-435
  TGI: > 100 µM
786-0 renal
  TGI: 30.7 µM
PC-3 prostate
  TGI: 69.3 µM
MDA-N
  TGI: > 100 µM
M14 melanoma
  TGI: 40.4 µM
NCI-H522 lung
  TGI: 30.7 µM
OVCAR-8 ovarian
  TGI: > 100 µM
HCC-2998 colon
  TGI: 55.6 µM

## O=C(Nn1c(-c2ccccc2)nc2ccccc2c1=O)c1ccc(CS)cc1
IGROV1 ovarian
  TGI: 88.3 µM
HCT-116 colon
  TGI: > 100 µM
SR leukemia
  TGI: > 100 µM
HS 578T breast
  TGI: > 100 µM
SK-MEL-28 melanoma
  TGI: > 100 µM
COLO 205 colon
  TGI: > 100 µM
KM12 colon
  TGI: > 100 µM
T-47D breast
  TGI: > 100 µM
MCF7 breast
  TGI: > 100 µM
SN12C renal
  TGI: > 100 µM
UO-31 renal
  TGI: > 100 µM
A498 renal
  TGI: 99.8 µM
MDA-MB-435
  TGI: > 100 µM
786-0 renal
  TGI: 50.5 µM
PC-3 prostate
  TGI: > 100 µM
MDA-N
  TGI: > 100 µM
M14 melanoma
  TGI: > 100 µM
NCI-H522 lung
  TGI: > 100 µM
OVCAR-8 ovarian
  TGI: > 100 µM
HCC-2998 colon
  TGI: > 100 µM

## CCOC(=O)CN1C(=O)c2c(c(C)n(-c3ccccc3)c2C)C1=O
IGROV1 ovarian
  TGI: > 100 µM
HCT-116 colon
  TGI: > 100 µM
SR leukemia
  TGI: > 100 µM
HS 578T breast
  TGI: > 100 µM
SK-MEL-28 melanoma
  TGI: > 100 µM
COLO 205 colon
  TGI: > 100 µM
KM12 colon
  TGI: > 100 µM
T-47D breast
  TGI: > 100 µM
MCF7 breast
  TGI: > 100 µM
SN12C renal
  TGI: > 100 µM
UO-31 renal
  TGI: > 100 µM
A498 renal
  TGI: > 100 µM
MDA-MB-435
  TGI: > 100 µM
786-0 renal
  TGI: > 100 µM
PC-3 prostate
  TGI: > 100 µM
MDA-N
  TGI: > 100 µM
M14 melanoma
  TGI: > 100 µM
NCI-H522 lung
  TGI: > 100 µM
OVCAR-8 ovarian
  TGI: > 100 µM
HCC-2998 colon
  TGI: > 100 µM

## O=C(CN1CCN(Cc2ccccc2)CC1)c1ccc2[nH]c(=O)oc2c1
IGROV1 ovarian
  TGI: > 100 µM
HCT-116 colon
  TGI: > 100 µM
SR leukemia
  TGI: > 100 µM
HS 578T breast
  TGI: > 100 µM
SK-MEL-28 melanoma
  TGI: > 100 µM
COLO 205 colon
  TGI: > 100 µM
KM12 colon
  TGI: > 100 µM
T-47D breast
  TGI: > 100 µM
MCF7 breast
  TGI: > 100 µM
SN12C renal
  TGI: > 100 µM
UO-31 renal
  TGI: > 100 µM
A498 renal
  TGI: > 100 µM
MDA-MB-435
  TGI: > 100 µM
786-0 renal
  TGI: > 100 µM
PC-3 prostate
  TGI: > 100 µM
MDA-N
  TGI: > 100 µM
M14 melanoma
  TGI: > 100 µM
NCI-H522 lung
  TGI: > 100 µM
OVCAR-8 ovarian
  TGI: > 100 µM
HCC-2998 colon
  TGI: > 100 µM

## C=CCN1CCC(OC(=O)C(O)(C#CC)C2CCCC2)CC1 (stereo not given)
IGROV1 ovarian
  TGI: > 100 µM
HCT-116 colon
  TGI: > 100 µM
SR leukemia
  TGI: > 100 µM
HS 578T breast
  TGI: > 100 µM
SK-MEL-28 melanoma
  TGI: > 100 µM
COLO 205 colon
  TGI: > 100 µM
KM12 colon
  TGI: > 100 µM
T-47D breast
  TGI: > 100 µM
MCF7 breast
  TGI: > 100 µM
SN12C renal
  TGI: > 100 µM
UO-31 renal
  TGI: > 100 µM
A498 renal
  TGI: > 100 µM
MDA-MB-435
  TGI: > 100 µM
786-0 renal
  TGI: > 100 µM
PC-3 prostate
  TGI: > 100 µM
MDA-N
  TGI: > 100 µM
M14 melanoma
  TGI: > 100 µM
NCI-H522 lung
  TGI: > 100 µM
OVCAR-8 ovarian
  TGI: > 100 µM
HCC-2998 colon
  TGI: > 100 µM

## CO/N=C(\C)c1ccc(Nc2c3ccccc3nc3occc23)cc1
IGROV1 ovarian
  TGI: 12.4 µM
HCT-116 colon
  TGI: 12.1 µM
SR leukemia
  TGI: 21.9 µM
HS 578T breast
  TGI: 10.3 µM
SK-MEL-28 melanoma
  TGI: 8.62 µM
COLO 205 colon
  TGI: 6.37 µM
KM12 colon
  TGI: 12.5 µM
T-47D breast
  TGI: 19.2 µM
MCF7 breast
  TGI: 1.59 µM
SN12C renal
  TGI: 22.6 µM
UO-31 renal
  TGI: 25.1 µM
A498 renal
  TGI: 9.94 µM
MDA-MB-435
  TGI: 0.224 µM
786-0 renal
  TGI: 6.67 µM
PC-3 prostate
  TGI: 49.3 µM
MDA-N
  TGI: 0.379 µM
M14 melanoma
  TGI: 9.59 µM
NCI-H522 lung
  TGI: 0.311 µM
OVCAR-8 ovarian
  TGI: 14.8 µM
HCC-2998 colon
  TGI: 1.94 µM

## COC(=O)CCc1cc(OC)c(O)c(C(Cc2ccc(OC)c(OC)c2)C(=O)OC)c1 (stereo not given)
IGROV1 ovarian
  TGI: > 100 µM
HCT-116 colon
  TGI: > 100 µM
SR leukemia
  TGI: > 100 µM
HS 578T breast
  TGI: > 100 µM
SK-MEL-28 melanoma
  TGI: > 100 µM
COLO 205 colon
  TGI: > 100 µM
KM12 colon
  TGI: > 100 µM
T-47D breast
  TGI: > 100 µM
MCF7 breast
  TGI: > 100 µM
SN12C renal
  TGI: > 100 µM
UO-31 renal
  TGI: > 100 µM
A498 renal
  TGI: > 100 µM
MDA-MB-435
  TGI: > 100 µM
786-0 renal
  TGI: > 100 µM
PC-3 prostate
  TGI: > 100 µM
MDA-N
  TGI: > 100 µM
M14 melanoma
  TGI: > 100 µM
NCI-H522 lung
  TGI: > 100 µM
OVCAR-8 ovarian
  TGI: > 100 µM
HCC-2998 colon
  TGI: > 100 µM

## O=c1cc(NCCCCCO)[nH]c(=O)[nH]1
IGROV1 ovarian
  TGI: > 100 µM
HCT-116 colon
  TGI: > 100 µM
SR leukemia
  TGI: > 100 µM
HS 578T breast
  TGI: > 100 µM
SK-MEL-28 melanoma
  TGI: > 100 µM
COLO 205 colon
  TGI: > 100 µM
KM12 colon
  TGI: > 100 µM
T-47D breast
  TGI: > 100 µM
MCF7 breast
  TGI: > 100 µM
SN12C renal
  TGI: > 100 µM
UO-31 renal
  TGI: > 100 µM
A498 renal
  TGI: > 100 µM
MDA-MB-435
  TGI: > 100 µM
786-0 renal
  TGI: > 100 µM
PC-3 prostate
  TGI: > 100 µM
MDA-N
  TGI: > 100 µM
M14 melanoma
  TGI: > 100 µM
NCI-H522 lung
  TGI: > 100 µM
OVCAR-8 ovarian
  TGI: > 100 µM
HCC-2998 colon
  TGI: > 100 µM

## Nc1cc2c3c(c1)Oc1cc(N)cc4c1C3c1c(cc(N)cc1O4)O2
IGROV1 ovarian
  TGI: > 44.9 µM
HCT-116 colon
  TGI: 75.5 µM
SR leukemia
  TGI: 50 µM
HS 578T breast
  TGI: > 100 µM
SK-MEL-28 melanoma
  TGI: > 100 µM
COLO 205 colon
  TGI: 34.3 µM
KM12 colon
  TGI: > 84.2 µM
T-47D breast
  TGI: > 93.2 µM
MCF7 breast
  TGI: > 60 µM
SN12C renal
  TGI: 49.2 µM
UO-31 renal
  TGI: > 100 µM
A498 renal
  TGI: > 100 µM
MDA-MB-435
  TGI: > 86.9 µM
786-0 renal
  TGI: > 86.5 µM
PC-3 prostate
  TGI: 98.3 µM
MDA-N
  TGI: 59.5 µM
M14 melanoma
  TGI: > 100 µM
NCI-H522 lung
  TGI: 45.5 µM
OVCAR-8 ovarian
  TGI: 34 µM
HCC-2998 colon
  TGI: > 100 µM

## C=CCOC(=O)N1[C@H]2C#C/C=C\C#C[C@]3(O)C(=O)C[C@H](C)[C@]24O[C@]43C2=CC(=O)C=CC21OC (stereo not given in full)
IGROV1 ovarian
  TGI: 67.3 µM
HCT-116 colon
  TGI: 44.6 µM
SR leukemia
  TGI: 29.9 µM
HS 578T breast
  TGI: > 100 µM
SK-MEL-28 melanoma
  TGI: > 100 µM
COLO 205 colon
  TGI: 38.8 µM
KM12 colon
  TGI: 67.7 µM
T-47D breast
  TGI: > 100 µM
MCF7 breast
  TGI: > 100 µM
SN12C renal
  TGI: 67.4 µM
UO-31 renal
  TGI: > 100 µM
A498 renal
  TGI: 38 µM
MDA-MB-435
  TGI: > 100 µM
786-0 renal
  TGI: 38.7 µM
PC-3 prostate
  TGI: > 100 µM
MDA-N
  TGI: > 100 µM
M14 melanoma
  TGI: > 100 µM
NCI-H522 lung
  TGI: 48.5 µM
OVCAR-8 ovarian
  TGI: 47.9 µM
HCC-2998 colon
  TGI: 77.6 µM
